Numbers after ± are expanded uncertainties.
Settings: Liquid, Closed cell (Static) method

Row | vapor or sublimation pressure (253.15 K) | vapor or sublimation pressure (263.15 K) | Compound | vapor or sublimation pressure (273.15 K) | vapor or sublimation pressure (283.15 K) | vapor or sublimation pressure (293.15 K)
1 |  |  | F/C=C\C(F)(F)F [(Z)-1,3,3,3-tetrafluoro-1-propene] | 68.5 ± 1 kPa | 102.5 ± 1.1 kPa | 148.9 ± 1.1 kPa
2 | 244.1 ± 1.2 kPa | 345.1 ± 1.4 kPa | CCC [propane] | 474.4 ± 1.7 kPa | 636.4 ± 2.1 kPa | 836.3 ± 2.6 kPa

— the NIST ThermoML archive (doi:10.1016/j.jct.2016.03.018)
